Legend:
Format in all cases: in vivo, human
[1] = SOLO I Phase 3 trial, safety assessments (safety population); settings: for Patients who died during the study: all determined unrelated to study drug; for Infusion site reaction AEs / Pruritus AEs: post-hoc analysis; for Incidence of diarrhea / Incidence of headache / Incidence of nausea / Incidence of vomiting: safety population
Description: (§1) The study design was consistent with current guidelines from FDA (U.S. Food and Drug Administration. Guidance for Industry Acute Bacterial Skin and Skin Structure Infections: Developing Drugs for Treatment (DRAFT GUIDANCE). Available via Internet at the URL containing: fda.gov/downloads/Drugs/GuidanceComplianceRegulatoryInformation/Guidances/ucm071185.p df) and EMA (European Medicines Agency Committee for Medicinal Products for Human Use. Addendum to the note for guidance on evaluation of medicinal products indicated for treatment of bacterial infections (CHMP/EWP/558/95 REV 2) to address indication-specific clinical data (draft). 2012. Available via Internet at the URL containing: ema.europa.eu/docs/en_GB/document_library/Scientific_guideline/2012/07/WC500129443.pdf) and Foundation for National Institutes of Health guidance was considered for analyses (Talbot G H etl. Clin Infect Dis. 2012. 55(8):1114-1121). The protocol was approved by institutional review boards/ethics committees and all patients provided written informed consent. The study was conducted from January 2011 through October 2012 at 46 study centers in Mexico, Spain, Germany, Romania, Russia, Ukraine, Israel, India, and the United States. […] Aztreonam and metronidazole were permitted for gram-negative and anaerobic cover, respectively.
Safety assessments (Safety Population) included vital signs, electrocardiogram (ECG), clinical chemistry and hematology parameters, reporting of adverse events (AEs) and serious adverse events (SAEs). Treatment-emergent adverse events (TEAEs) were defined as AEs with onset or worsening severity at or after the first dose of study drug through the Safety Follow-up Visit (Day 60+7 days).
For safety assessments, descriptive analyses were performed in the safety population for all safety parameters by treatment group.
The intent-to-treat (ITT) population included all patients randomized into the study. The modified intent-to-treat (mITT) was the primary population for all the efficacy analyses and included all randomized patients who received any study drug. The clinically evaluable (CE) population consisted of all mITT patients who met the inclusion/exclusion criteria, received the full-course of randomized study treatment (for a minimum of 7 days), and had investigator assessment for clinical cure at PTE. The CE population was used to confirm the efficacy analyses. The microbiologically ITT (MicroITT) population consisted of all mITT patients with baseline gram-positive pathogen(s) known to cause ABSSSI and it was used for the secondary efficacy analyses. The microbiologically evaluable (MicroE) population was used to confirm the secondary efficacy analyses and consisted of all patients who were in both the MicroITT and CE populations. The safety population was the primary population for all the safety analyses, and consisted of all patients who were dosed with study drug, irrespective of randomization. Treatment classification was based on the actual treatment received.

[2] = SOLO II Phase 3 trial, safety; settings: for Patients reported to experience at least one adverse event: up to 60 days after treatment
Description: Safety profiles, measured at any point up to 60 days after treatment, were similar across treatment groups in SOLO II.

[3] = system: ABSSSI suspected or proven to be due to a gram-positive pathogen, including MRSA; assay: SOLO I Phase 3 trial, efficacy: single dose IV oritavancin versus IV vancomycin for 7 to 10 days; settings: for Lesion Size Reduction ≧20% From Baseline / Primary efficacy endpoint response rate (cessation of spread, absence of fever, no rescue antibiotics): ECE 48 to 72 hours; for Investigator-Assessed Clinical Cure / Sustained Clinical Cure: PTE 7 to 14 days after EOT; for Difference in lesion size reduction ≧20% rate (oritavancin minus vancomycin) / Difference in primary efficacy endpoint rate (oritavancin minus vancomycin): ECE; for Difference in investigator-assessed clinical cure rate (oritavancin minus vancomycin) / Difference in sustained clinical cure rate (oritavancin minus vancomycin): PTE
Protocol: The primary efficacy endpoint comprised: 1) cessation of spreading or reduction in the size of the baseline lesion, 2) absence of fever, and 3) no rescue antibiotic, at 48 to 72 hours, for the modified intent to treat population.
as §1
Clinical evaluations were performed at the following time points: Early Clinical Evaluation (ECE) at 48 to 72 hours after the initiation of the study drug infusion, End of Therapy (EOT) at Day 7 to Day 10 or the day the patient stopped study drug or changed to non-study drug therapy for primary ABSSSI, Day 10 Evaluation defined as 10 days after the initiation of the study drug infusion, Post Therapy Evaluation (PTE) at 7 to 14 days after the EOT visit, and Safety Follow-up at 60 days (+7 days) after the initiation of the study drug infusion. Safety data was reviewed by a data monitoring committee.
Eligible patients were to be at least 18 years of age with diagnosis of ABSSSI that was suspected or proven to be due to a gram-positive pathogen and which required at least 7 days of IV therapy. The diagnosis of ABSSSI was defined as wound infections (either traumatic or surgical in origin), cellulitis/erysipelas or major cutaneous abscess with surrounding erythema, edema, and/or induration of at least 75 cm^2. The onset of wound infections or cellulitis/erysipelas must have occurred within 7 days prior to randomization. Patients also had to present with signs and symptoms of systemic inflammation. Patients were not eligible to participate if they received systemic or topical antibacterial therapy with gram-positive activity within the preceding 14 days.
The primary efficacy endpoint was a composite outcome of 1) cessation of spreading or reduction in the size of the baseline lesion, 2) absence of fever, and 3) no rescue antibiotic medication at the ECE visit, for the mITT population.
The secondary efficacy outcomes were as follows: 1) Lesion area decrease by ≧20% from Baseline at ECE, 2) Investigator-Assessed Clinical Response at PTE, 3) Sustained Clinical Response at PTE.
The analyses were performed for patients who had lesion area assessments at baseline and ECE using the mITT and CE populations.
If a patient had clinical failure assessed beyond the PTE visit window, the patient was considered as a clinical failure. If a patient had clinical success assessed beyond the PTE visit window, a) and if the patient had clinical failure before the PTE visit, the patient was considered a clinical failure at PTE or b) if the patient had clinical success also before the PTE visit, the patient was considered a clinical success at PTE.

CN[C@H](CC(C)C)C(=O)N[C@H]1C(=O)N[C@@H](CC(N)=O)C(=O)N[C@H]2C(=O)N[C@H]3C(=O)N[C@H](C(=O)N[C@H](C(=O)O)c4cc(O)cc(O)c4-c4cc3ccc4O)[C@H](O)c3ccc(c(Cl)c3)Oc3cc2cc(c3O[C@@H]2O[C@H](CO)[C@@H](O)[C@H](O)[C@H]2O[C@H]2C[C@](C)(N)[C@H](O)[C@H](C)O2)Oc2ccc(cc2Cl)[C@H]1O [Vancomycin, vancomycin]
Cellulitis SAEs considered new events [1]: 4
Discontinuation of study drug due to cellulitis [1]: 3 patients
Discontinuation of study drug due to drug hypersensitivity [1]: 2 patients
Discontinuation of study drug due to hypersensitivity [1]: 5 patients
Discontinuation of study drug due to pruritus [1]: 2 patients
Discontinuation of study drug due to rash [1]: 2 patients
Discontinuation of study drug due to sepsis [1]: 2 patients
Discontinuation of study drug due to skin bacterial infection [1]: 2 patients
Frequency of SAEs [1]: 7.3%
Histamine-like reactions (Red Man syndrome) [1]: 2 patients
Proportion of patients experiencing a TEAE that led to discontinuation of the study drug [1]: 5.8%
Skin and subcutaneous tissue adverse events [1]: 19.1%
Patients who died during the study [1]: two
Infusion site reaction AEs [1]: 7.1%
Pruritus AEs [1]: 9.1%
Incidence of diarrhea [1]: 3.5%
Incidence of headache [1]: 7.9%
Incidence of nausea [1]: 8.9%
Incidence of vomiting [1]: 3.7%
Treatment emergent adverse events considered by investigators as related to study drug [2]: 25.5%
Patients reported to experience at least one adverse event [2]: 50.2%
Lesion Size Reduction ≧20% From Baseline ([3]; CE): 88.7%
Primary efficacy endpoint response rate (cessation of spread, absence of fever, no rescue antibiotics) ([3]; CE): 86.1%
Investigator-Assessed Clinical Cure ([3]; CE): 93.2%
Lesion Size Reduction ≧20% From Baseline ([3]; MRSA MicroE): 89.0%
Primary efficacy endpoint response rate (cessation of spread, absence of fever, no rescue antibiotics) ([3]; MRSA MicroE): 86.6%
Investigator-Assessed Clinical Cure ([3]; MRSA MicroE): 97.6%
Lesion Size Reduction ≧20% From Baseline ([3]; MRSA MicroITT): 84.0%
Primary efficacy endpoint response rate (cessation of spread, absence of fever, no rescue antibiotics) ([3]; MRSA MicroITT): 80.0%
Lesion Size Reduction ≧20% From Baseline ([3]; MRSA MicroITT, listed as vancomycin): 84.0%
Investigator-Assessed Clinical Cure ([3]; MRSA MicroITT): 83.0%
Sustained Clinical Cure ([3]; MRSA MicroITT): 69.0%
Lesion Size Reduction ≧20% From Baseline ([3]; mITT): 82.9%
Primary efficacy endpoint response rate (cessation of spread, absence of fever, no rescue antibiotics) ([3]; mITT): 78.9%
Lesion Size Reduction ≧20% From Baseline ([3]; mITT, listed as vancomycin): 82.9%
Primary efficacy endpoint response rate (cessation of spread, absence of fever, no rescue antibiotics) ([3]; mITT, listed as vancomycin): 78.9%
Investigator-Assessed Clinical Cure ([3]; mITT): 80.0%
Sustained Clinical Cure ([3]; mITT): 69.7%
Investigator-Assessed Clinical Cure ([3]; mITT, listed as vancomycin): 80.0%
Sustained Clinical Cure ([3]; mITT, listed as vancomycin): 69.7%

CN[C@H](CC(C)C)C(=O)N[C@H]1C(=O)N[C@@H](CC(N)=O)C(=O)N[C@H]2C(=O)N[C@H]3C(=O)N[C@H](C(=O)N[C@H](C(=O)O)c4cc(O)cc(O)c4-c4cc3ccc4O)[C@H](O[C@H]3C[C@](C)(N)[C@@H](O)[C@H](C)O3)c3ccc(c(Cl)c3)Oc3cc2cc(c3O[C@@H]2O[C@H](CO)[C@@H](O)[C@H](O)[C@H]2O[C@H]2C[C@](C)(NCc3ccc(-c4ccc(Cl)cc4)cc3)[C@@H](O)[C@H](C)O2)Oc2ccc(cc2Cl)[C@H]1O [Oritavancin, N^DISACC-(4-(4-chlorophenyl)benzyl)A82846B]
Cellulitis SAEs considered new events [1]: 2
Discontinuation of study drug due to cellulitis [1]: 2 patients
Frequency of SAEs [1]: 7.4%
Histamine-like reactions (Red Man syndrome) [1]: No histamine-like reactions occurred
Proportion of patients experiencing a TEAE that led to discontinuation of the study drug [1]: 3.8%
Skin and subcutaneous tissue adverse events [1]: 11.6%
Patients who died during the study [1]: one
Infusion site reaction AEs [1]: 4.0%
Pruritus AEs [1]: 3.4%
Incidence of diarrhea [1]: 4.9%
Incidence of headache [1]: 7.2%
Incidence of nausea [1]: 11.0%
Incidence of vomiting [1]: 4.9%
Overall safety and tolerability ([1]; single 1200 mg dose): safe and well-tolerated
Treatment emergent adverse events considered by investigators as related to study drug [2]: 21.7%
Patients reported to experience at least one adverse event [2]: 50.9%
Efficacy versus vancomycin for ECE and PTE endpoints ([3]; 10% non-inferiority margin): non-inferior to vancomycin
Patients both early treatment responders (lesion size reduction of ≧20% at ECE) and clinical successes at PTE ([3]; CE population): more than 84%
Difference in lesion size reduction ≧20% rate (oritavancin minus vancomycin) ([3]; CE): 1.9%
Difference in primary efficacy endpoint rate (oritavancin minus vancomycin) ([3]; CE): 1.2%
Lesion Size Reduction ≧20% From Baseline ([3]; CE): 90.6%
Primary efficacy endpoint response rate (cessation of spread, absence of fever, no rescue antibiotics) ([3]; CE): 87.3%
Difference in investigator-assessed clinical cure rate (oritavancin minus vancomycin) ([3]; CE): −1.3%
Difference in sustained clinical cure rate (oritavancin minus vancomycin) ([3]; CE): −3.9%
Investigator-Assessed Clinical Cure ([3]; CE): 91.9%
Sustained Clinical Cure ([3]; CE): 79.4%
Difference in lesion size reduction ≧20% rate (oritavancin minus vancomycin) ([3]; MRSA MicroE): 7.5%
Difference in primary efficacy endpoint rate (oritavancin minus vancomycin) ([3]; MRSA MicroE): 1.8%
Lesion Size Reduction ≧20% From Baseline ([3]; MRSA MicroE): 96.5%
Primary efficacy endpoint response rate (cessation of spread, absence of fever, no rescue antibiotics) ([3]; MRSA MicroE): 88.4%
Difference in investigator-assessed clinical cure rate (oritavancin minus vancomycin) ([3]; MRSA MicroE): −2.2%
Difference in sustained clinical cure rate (oritavancin minus vancomycin) ([3]; MRSA MicroE): −2.8%
Investigator-Assessed Clinical Cure ([3]; MRSA MicroE): 95.3%
Sustained Clinical Cure ([3]; MRSA MicroE): 81.4%
Difference in lesion size reduction ≧20% rate (oritavancin minus vancomycin) ([3]; MRSA MicroITT): 6.4%
Difference in primary efficacy endpoint rate (oritavancin minus vancomycin) ([3]; MRSA MicroITT): 0.8%
Lesion Size Reduction ≧20% From Baseline ([3]; MRSA MicroITT): 90.4%
Primary efficacy endpoint response rate (cessation of spread, absence of fever, no rescue antibiotics) ([3]; MRSA MicroITT): 80.8%
Lesion Size Reduction ≧20% From Baseline ([3]; MRSA MicroITT, listed as oritavancin): 90.4%
Difference in investigator-assessed clinical cure rate (oritavancin minus vancomycin) ([3]; MRSA MicroITT): −0.3%
Difference in sustained clinical cure rate (oritavancin minus vancomycin) ([3]; MRSA MicroITT): −0.7%
Investigator-Assessed Clinical Cure ([3]; MRSA MicroITT): 82.7%
Sustained Clinical Cure ([3]; MRSA MicroITT): 68.3%
Difference in lesion size reduction ≧20% rate (oritavancin minus vancomycin) ([3]; mITT): 4.1%
Difference in primary efficacy endpoint rate (oritavancin minus vancomycin) ([3]; mITT): 3.4%
Lesion Size Reduction ≧20% From Baseline ([3]; mITT): 86.9%
Primary efficacy endpoint response rate (cessation of spread, absence of fever, no rescue antibiotics) ([3]; mITT): 82.3%
Lesion Size Reduction ≧20% From Baseline ([3]; mITT, listed as oritavancin): 86.9%
Primary efficacy endpoint response rate (cessation of spread, absence of fever, no rescue antibiotics) ([3]; mITT, listed as oritavancin): 82.3%
Difference in investigator-assessed clinical cure rate (oritavancin minus vancomycin) ([3]; mITT): −0.4%
Difference in sustained clinical cure rate (oritavancin minus vancomycin) ([3]; mITT): −2.6%
Investigator-Assessed Clinical Cure ([3]; mITT): 79.6%
Sustained Clinical Cure ([3]; mITT): 67.2%
Investigator-Assessed Clinical Cure ([3]; mITT, listed as oritavancin): 79.6%
Sustained Clinical Cure ([3]; mITT, listed as oritavancin): 67.2%
